From ChEMBL document CHEMBL1201862, “PubChem BioAssay data set” (2004) come the findings set out here.

Molecules are shown by their SMILES.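 Following 48 hours of exposure in 96-well plates, responses at five concentrations were used to interpolate endpoints linearly. Abbreviation: GI50, concentration required for 50% inhibition of growth.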 Activity calls are given as the source filed them. No stated cut-off is given here; in the data, active = GI50 up to about 1.1 µM and inactive = higher.

Some test systems named below: MOLT-4; KM12; EKVX; UACC-62; OVCAR-5; NCI-H460; CAKI-1; LXFL 529; OVCAR-3; HT-29; HCT-116; HCT-15; Malme-3M; UACC-257; SF-295; SK-MEL-2; UO-31; MCF7; HOP-92; MDA-N.
What all share (assay): DTP human tumour cell line panel, 48 h

As to `CCC12CC[C@H](C#N)N3CCc4c(n(c5ccccc45)C(=O)C1)C32` (some centres not stated), the GI50 is 15 µM (inactive) with MOLT-4; 8.17 µM (inactive) in the test with KM12; 23 µM (inactive) in the test on EKVX; 12.2 µM (inactive) with UACC-62; 21.5 µM (inactive) in the test on OVCAR-5; 13.3 µM (inactive) with NCI-H460. Also, the GI50 is 12.6 µM (inactive) in the test with CAKI-1; 16.6 µM (inactive) in the test with LXFL 529; 13.3 µM (inactive) in the test on OVCAR-3; 14.2 µM (inactive) with HT-29; 13.9 µM (inactive) in the test with HCT-116; 5.2 µM in the test with HCT-15. In addition, the GI50 in the test on Malme-3M was 4.02 µM (inactive); in the test on UACC-257, 14 µM (inactive); with SF-295 it was 12.4 µM (inactive); in the test on SK-MEL-2, 14.1 µM (inactive); in the test with UO-31 it was 3.1 µM (inactive).

Take `COc1cc2cnc3c4cc(OC(C)C)c(OC)cc4ccc3c2cc1OC`: the GI50 in the test with MOLT-4, with KM12, in the test on EKVX, in the test with UACC-62, with OVCAR-5 and with NCI-H460 was > 100 µM (inactive) each time. For the same molecule, the GI50 is > 100 µM (inactive) with CAKI-1; > 100 µM (inactive) in the test on LXFL 529; > 100 µM (inactive) in the test on OVCAR-3; > 100 µM (inactive) in the test with HT-29; > 100 µM (inactive) in the test with HCT-116; over 100 µM with HCT-15. The GI50 in the test on Malme-3M, in the test on UACC-257, in the test with SF-295, in the test with SK-MEL-2 and in the test with UO-31 was > 100 µM (inactive) each time.

`N#CC1CC2(C1)OCCS2` (configuration not stated): the GI50 in the test on MOLT-4, in the test with KM12, in the test with EKVX, in the test on UACC-62, in the test with OVCAR-5 and in the test with NCI-H460 was > 100 µM (inactive) each time. The GI50 with CAKI-1 is > 100 µM (inactive); in the test with LXFL 529 it was > 100 µM (inactive); with OVCAR-3, > 100 µM (inactive); in the test on HT-29, > 100 µM (inactive); in the test with HCT-116, > 100 µM (inactive); with HCT-15, over 100 µM. Also, the GI50 in the test on UACC-257, in the test on SF-295, with SK-MEL-2 and with UO-31 was > 100 µM (inactive) in each case.

As for `O=C1C=C(OCCCl)C(=O)c2c(O)ccc(O)c21`, the GI50 with MOLT-4 is 1.72 µM (inactive); in the test on KM12, 2.07 µM (inactive); in the test with EKVX it was 1.91 µM (inactive); in the test on MCF7, 0.216 µM (active); in the test on UACC-62, 0.228 µM (active); with OVCAR-5, 1.59 µM (inactive). Besides, the GI50 in the test on NCI-H460 is 0.395 µM (active); in the test with CAKI-1, 2.03 µM (inactive); in the test with HOP-92, 2.15 µM (inactive); with OVCAR-3, 1.06 µM (active); in the test on HT-29 it was 0.378 µM (active); with HCT-116 it was 0.409 µM (active). In addition, the GI50 in the test with HCT-15 is 0.209 µM; in the test with MDA-N it was 0.17 µM (active); in the test on Malme-3M it was 0.175 µM (active); with UACC-257, 0.177 µM (active); with SF-295, 1.56 µM (inactive); with SK-MEL-2, 0.478 µM (active). In addition, the GI50 in the test on UO-31 is 1.42 µM (inactive).

For the molecule `C=CC(=O)N1C/C(=C\c2ccc(OC)cc2)C(=O)/C(=C/c2ccc(OC)cc2)C1`, the GI50 is 1.76 µM (inactive) in the test with MOLT-4; 1.93 µM (inactive) in the test with KM12; 3.35 µM (inactive) in the test on EKVX; 0.628 µM (active) in the test on MCF7; 1.94 µM (inactive) with UACC-62; 4.9 µM (inactive) in the test on OVCAR-5. Moreover, the GI50 in the test on NCI-H460 is 1.9 µM (inactive); in the test with CAKI-1 it was 3.22 µM (inactive); in the test on HOP-92, 6.03 µM (inactive); in the test with OVCAR-3, 1.97 µM (inactive); in the test on HT-29, 0.78 µM (active); in the test with HCT-116 it was 0.219 µM (active). In addition, the GI50 is 1.56 µM in the test on HCT-15; 1.62 µM (inactive) in the test with MDA-N; 2.19 µM (inactive) in the test on Malme-3M; 3.64 µM (inactive) in the test with UACC-257; 2.39 µM (inactive) with SF-295; 2.68 µM (inactive) in the test with SK-MEL-2. For the same molecule, the GI50 in the test with UO-31 is 1.77 µM (inactive).

As to `CC1(/C=C/CCSc2ccccc2)CC(=O)C2CC1C2(C)C` (configuration not stated), the GI50 in the test on MOLT-4 was 4.67 µM (inactive); in the test on KM12, 13.2 µM (inactive); with EKVX, 22.1 µM (inactive); in the test with MCF7, 22.6 µM (inactive); in the test with UACC-62 it was 8.04 µM (inactive); with OVCAR-5 it was 44.9 µM (inactive). Also, the GI50 in the test on NCI-H460 is 17.3 µM (inactive); in the test on CAKI-1, 26.6 µM (inactive); in the test on HOP-92 it was 17.9 µM (inactive); in the test with OVCAR-3, 23.1 µM (inactive); in the test with HT-29, 12.4 µM (inactive); in the test with HCT-116, 13 µM (inactive). Besides, the concentration for 50% growth inhibition (GI50) in the test with HCT-15 was 15.8 µM; in the test with MDA-N it was 26.9 µM (inactive); with Malme-3M, 21.3 µM (inactive); in the test on UACC-257 it was 14.7 µM (inactive); with SF-295 it was 21 µM (inactive); in the test with SK-MEL-2, 14.3 µM (inactive). In addition, the GI50 with UO-31 was 5.61 µM (inactive).

For `CC(C)(C)OC(=O)N/C=C1\C(=O)Oc2ccccc2C1=O`, the GI50 in the test with MOLT-4 is > 100 µM (inactive); in the test with KM12, 37.9 µM (inactive); with EKVX, 47.6 µM (inactive); in the test on MCF7 it was 70.8 µM (inactive); in the test with UACC-62, 38.4 µM (inactive); in the test on OVCAR-5, 46.8 µM (inactive). For the same molecule, the GI50 in the test with NCI-H460 is 33.2 µM (inactive); in the test with CAKI-1, 15 µM (inactive); in the test on HOP-92, 45.3 µM (inactive); with OVCAR-3, 29.7 µM (inactive); in the test on HT-29, > 100 µM (inactive); in the test with HCT-116 it was 36 µM (inactive). Also, the GI50 with HCT-15 was 11.3 µM; in the test with MDA-N, 34.5 µM (inactive); in the test with Malme-3M, 31.3 µM (inactive); with UACC-257 it was 31.3 µM (inactive); in the test on SF-295, 38.5 µM (inactive); in the test with SK-MEL-2, 14.6 µM (inactive). In the test with UO-31, the GI50 was 0.082 µM (active).

On to `Oc1cc(Br)cc2cccnc12`, for which the GI50 was 1.35 µM (inactive) in the test with MOLT-4; 4.7 µM (inactive) in the test with KM12; 2.09 µM (inactive) in the test on EKVX; 0.964 µM (active) with MCF7; 1.92 µM (inactive) in the test on UACC-62; 5.12 µM (inactive) in the test with OVCAR-5. For the same molecule, the GI50 is 1.31 µM (inactive) with NCI-H460; 3.15 µM (inactive) in the test on CAKI-1; 5.15 µM (inactive) with HOP-92; 1.05 µM (active) in the test on OVCAR-3; 8.22 µM (inactive) in the test on HT-29; 1.78 µM (inactive) with HCT-116. Moreover, the GI50 with HCT-15 was 0.697 µM; with MDA-N, 8.28 µM (inactive); with Malme-3M, 3.05 µM (inactive); with UACC-257, 2.6 µM (inactive); in the test with SF-295, 1.67 µM (inactive); with SK-MEL-2 it was 15.6 µM (inactive). Besides, the GI50 with UO-31 is 1.5 µM (inactive).

`CCOC(=O)C(=C(SC)SC)c1nn2c(=O)cc(C)nc2s1`: the GI50 with MOLT-4 is 17.7 µM (inactive); in the test on KM12 it was 33 µM (inactive); with EKVX it was 24.3 µM (inactive); in the test on MCF7, 20.5 µM (inactive); with UACC-62, 21 µM (inactive); in the test with OVCAR-5 it was 28.4 µM (inactive). Moreover, the GI50 is 24 µM (inactive) with NCI-H460; 24.6 µM (inactive) with CAKI-1; 16.9 µM (inactive) in the test with HOP-92; 18.7 µM (inactive) in the test with OVCAR-3; 20.9 µM (inactive) in the test on HT-29; 16.4 µM (inactive) in the test with HCT-116. The GI50 with HCT-15 was 17.1 µM; in the test with MDA-N it was 16.4 µM (inactive); in the test with Malme-3M, 15.9 µM (inactive); in the test with UACC-257, 23.9 µM (inactive); in the test on SF-295, 71.8 µM (inactive); in the test with SK-MEL-2 it was 20.1 µM (inactive). The GI50 in the test with UO-31 was 19.5 µM (inactive).

On to `CCOC(=O)C1C(=O)CC1(C)C` (configuration not stated), for which the GI50 in the test on MOLT-4, in the test with KM12, with EKVX, with MCF7, with UACC-62 and in the test on OVCAR-5 was > 10 µM (inactive) throughout. Also, the GI50 in the test with NCI-H460, with CAKI-1, in the test on HOP-92, in the test with OVCAR-3, in the test with HT-29 and in the test with HCT-116 was > 10 µM (inactive) each time. Moreover, the GI50 in the test with HCT-15 is over 10 µM; with MDA-N, > 10 µM (inactive); in the test on Malme-3M, > 10 µM (inactive); in the test with UACC-257, > 10 µM (inactive); in the test on SF-295, > 10 µM (inactive); in the test on SK-MEL-2, > 10 µM (inactive). For the same molecule, the GI50 in the test with UO-31 is > 10 µM (inactive).

Regarding `CC1(C)C2CCC(O)(C2)C1N` (configuration not stated), the GI50 in the test on MOLT-4, in the test with KM12, in the test with EKVX, in the test with MCF7, in the test with UACC-62 and in the test on OVCAR-5 was > 100 µM (inactive) throughout. Moreover, the GI50 in the test on NCI-H460, in the test on CAKI-1, with HOP-92, in the test with OVCAR-3, with HT-29 and in the test on HCT-116 was > 100 µM (inactive) in each case. For the same molecule, the GI50 in the test on HCT-15 is over 100 µM; with MDA-N, > 100 µM (inactive); in the test on Malme-3M it was > 100 µM (inactive); in the test on UACC-257, > 100 µM (inactive); in the test on SF-295 it was > 100 µM (inactive); with SK-MEL-2, > 100 µM (inactive). Besides, the GI50 in the test with UO-31 was > 100 µM (inactive).
